# Reference: patent publication US9895328B2, “Calcium formate as a supplement to prevent neural tube defects” (BOARD OF REGENTS, THE UNIVERSITY OF TEXAS SYSTEM, priority 2013, dated 2018)
# Read-outs that look alike come from different tables or passages of the source.
# Columns and labels:
# Mthfd1l^z/z embryos [1] = experiment: Maternal supplementation with sodium formate, Mthfd1l^z/+ matings; type: in vivo, mouse
# Experimental: Maternal Supplementation with Sodium Formate.
# Because deletion of Mthfd1l is expected to result in loss of mitochondrial formate production, experiments were conducted to determine if maternal formate supplementation would improve development of Mthfd1l^z/z embryos. Pregnant dams were given ad libitum access to water containing sodium formate to achieve a calculated dose of 5000 or 7500 mg sodium formate/kg/day; controls were given water without formate. […] When dams were supplemented with 5000 mg/kg/day sodium formate, 4 Mthfd1l^+/+, 14 Mthfd1l^z/+, and 8 Mthfd1l^z/z embryos were obtained from 3 litters between E15.5-18.5. […] Next, the morphology of E10.5-E15.5 embryos from dams supplemented with 7500 mg/kg/day sodium formate was examined, obtaining 10 Mthfd1l^+/+ embryos, 31 Mthfd1l^z/+ embryos and 14 Mthfd1l^z/z embryos from 6 litters, again conforming to the expected Mendelian ratio (p=0.48). […] Importantly, 6 of the 14 Mthfd1l^z/z embryos were dissected from dams at E13.5 or E15.5, whereas no surviving Mthfd1l^z/z embryos were observed after E12.5 from unsupplemented dams. While supplemented versus non-supplemented embryos were not compared after E12.5 due to lethality of the unsupplemented embryos, formate supplementation partially rescued the growth defect in Mthfd1l^z/z embryos (FIGS. 5A, 5B). […] Supplementation had no significant effect on crown-rump length of wild-type embryos (5.9±0.2 mm).
# [2] = test system: neural tube defects (NTDs); details: periconceptional intake of supplemental folic acid, some populations; cited from earlier work
# Amt null embryos = details: maternal supplementation; cited from earlier work
# Mthfd1l^z/z embryos [3] = details: for Crown-rump length: E15.5
# Excerpt: Mice. All protocols used within this study were approved by the Institutional Animal Care and Use Committee of The University of Texas at Austin and conform to the National Institutes of Health Guide for the Care and Use of Laboratory Animals. All mice were maintained on a C57Bl/6 genetic background. Mice harboring a floxed conditional knockout cassette between exons 4 and 6 of Mthfd1l were obtained from the Wellcome Trust Sanger Institute (EUCOMM ID 37226). Mice carrying the floxed Mthfd1l allele were mated to mice expressing Cre recombinase under control of the E2a promoter (E2a-Cre) (Lakso M, et al. (1996) Proc. Natl. Acad. Sci. U.S.A 93:5860-5865) to generate heterozygous Mthfd1l^z/+ embryos lacking exon 5 and the neomycin resistance cassette (FIG. 2A). All mice were given ad libitum access to water and standard mouse chow (LabDiet 5K67).
# Maternal Supplementation with Calcium Formate. Mthfd1l^z/+ matings were set up in a cage equipped with a water bottle containing 0.0096M, 0.019M, 0.056M or 0.096M calcium formate. The females had access to the supplemented water at least one day before observation of the plug. These concentrations were calculated to deliver 250, 500, 1500 or 2500 mg calcium formate/kg/day, respectively, based on an average water intake of 5 mL per day for a 25 g C57BL/6 mouse (Green EL ed (1966) Biology of the Laboratory Mouse (Dover Publications, Inc., New York), 2nd Ed, p 706). The effect of formate supplementation was analyzed by a two-tailed T-test for crown-rump length
# Pregnant dams were administered calculated doses of 250-2500 mg/kg/day.
# Folr1^−/− embryos = details: maternal supplementation, dose dependent ("tunable"); cited from earlier work
# [4] = dams 5000 mg/kg/day sodium formate in water, 3 litters, E15.5-18.5, distribution vs Mendelian p=0.50
# [5] = dams 7500 mg/kg/day sodium formate, 6 litters, E10.5-E15.5, vs Mendelian p=0.48
# [6] = embryos lacking Mthfd1l, maternal supplementation
# [7] = 250 mg/kg, of 6 Mthfd1l^z/z embryos
# [8] = 250 mg/kg, of 6 Mthfd1l^z/z embryos (Table 2)
# [9] = 250 mg/kg, of 6 Mthfd1l^z/z embryos (Table 3)
# [10] = 500 mg/kg, of 11 Mthfd1l^z/z embryos
# [11] = 500 mg/kg, of 11 Mthfd1l^z/z embryos (Table 2)
# [12] = 500 mg/kg, of 11 Mthfd1l^z/z embryos (Table 3)
# [13] = 1500 mg/kg, Mthfd1l^z/z embryos
# [14] = 1500 mg/kg, of 13 Mthfd1l^z/z embryos
# [15] = 1500 mg/kg, of 13 Mthfd1l^z/z embryos (Table 2)
# [16] = 1500 mg/kg, of 13 Mthfd1l^z/z embryos (Table 3)
# [17] = 2500 mg/kg, Mthfd1l^z/z embryos
# [18] = 2500 mg/kg, of 15 Mthfd1l^z/z embryos
# [19] = 2500 mg/kg, of 15 Mthfd1l^z/z embryos (Table 2)
# [20] = 2500 mg/kg, of 15 Mthfd1l^z/z embryos (Table 3)
# [21] = 3500 mg/kg, Mthfd1l^z/z embryos
# [22] = 3500 mg/kg, of 10 Mthfd1l^z/z embryos
# [23] = 3500 mg/kg, of 10 Mthfd1l^z/z embryos (Table 2)
# [24] = 3500 mg/kg, of 10 Mthfd1l^z/z embryos (Table 3)
compound,measurement,setting,value
O=C[O-].[Na+] [sodium formate],"growth of embryos (words, FIG. 5)","Mthfd1l^z/z embryos [1]; 7500 mg sodium formate/kg/day, Mthfd1l^z/z embryos at E11.5 vs unsupplemented dams",improved growth
same,number of Mthfd1l^z/z embryos with exencephaly,"Mthfd1l^z/z embryos [1]; 7500 mg/kg/day sodium formate, of 14 Mthfd1l^z/z embryos",3
same,number of Mthfd1l^z/z embryos dissected at E13.5 or E15.5 (survival past E12.5),"Mthfd1l^z/z embryos [1]; 7500 mg/kg/day sodium formate, of 14 Mthfd1l^z/z embryos, none survive after E12.5 unsupplemented",6
same,number of Mthfd1l^z/z embryos with normal neural tube closure,"Mthfd1l^z/z embryos [1]; 7500 mg/kg/day sodium formate, of 14 Mthfd1l^z/z embryos, p=0.028 vs unsupplemented nulls",11
same,number of Mthfd1l^+/+ embryos obtained,Mthfd1l^z/z embryos [1]; [4],4
same,number of Mthfd1l^z/+ embryos obtained,Mthfd1l^z/z embryos [1]; [4],14
same,number of Mthfd1l^z/z embryos obtained,"Mthfd1l^z/z embryos [1]; dams 5000 mg/kg/day sodium formate in water, 3 litters, E15.5-18.5, distribution vs Mendelian p=0.50, 0 from unsupplemented dams",8
same,number of Mthfd1l^+/+ embryos obtained,Mthfd1l^z/z embryos [1]; [5],10
same,number of Mthfd1l^z/+ embryos obtained,Mthfd1l^z/z embryos [1]; [5],31
same,number of Mthfd1l^z/z embryos obtained,Mthfd1l^z/z embryos [1]; [5],14
same,growth defect,Mthfd1l^z/z embryos [1]; [6],partially rescue the growth defect
same,incidence of NTDs,Mthfd1l^z/z embryos [1]; [6],decrease the incidence of NTDs
same,Crown-rump length,"Mthfd1l^z/z embryos [1]; formate supplemented Mthfd1l^z/z E11.5 embryos, p<0.01 vs unsupplemented (3.6±0.3)",5.0±0.1 mm
same,Crown-rump length,"Mthfd1l^z/z embryos [1]; wild-type embryos, supplementation had no significant effect",5.9±0.2 mm
"Nc1nc2ncc(CNc3ccc(C(=O)NC(CCC(=O)O)C(=O)O)cc3)nc2c(=O)[nH]1 (stereo in doubt) [folic acid, pteroyl-L-glutamic acid]",reduction of the incidence of NTDs,[2],≤ 70%
same,neurulation in Amt null embryos,Amt null embryos,no effect
O=C[O-].O=C[O-].[Ca+2] [calcium formate],"NTD, phenotype as a percentage","Mthfd1l^z/z embryos [3]; 250 mg/kg, Mthfd1l^z/z embryos",0.1667 percentage
same,"no defect observed, phenotype as a percentage","Mthfd1l^z/z embryos [3]; 250 mg/kg, Mthfd1l^z/z embryos",0 percentage
same,"orofacial defect and NTD, phenotype as a percentage","Mthfd1l^z/z embryos [3]; 250 mg/kg, Mthfd1l^z/z embryos",0.1667 percentage
same,"orofacial defect, phenotype as a percentage","Mthfd1l^z/z embryos [3]; 250 mg/kg, Mthfd1l^z/z embryos",0.6667 percentage
same,no defect observed (number of embryos),Mthfd1l^z/z embryos [3]; [7],0
same,orofacial defect and NTD (number of embryos),Mthfd1l^z/z embryos [3]; [7],1
same,number with NTD,Mthfd1l^z/z embryos [3]; [8],2
same,number with facial defect,Mthfd1l^z/z embryos [3]; [8],4
same,NTD (number of embryos),Mthfd1l^z/z embryos [3]; [9],1
same,orofacial defect (number of embryos),Mthfd1l^z/z embryos [3]; [9],4
same,"NTD, phenotype as a percentage","Mthfd1l^z/z embryos [3]; 500 mg/kg, Mthfd1l^z/z embryos",0 percentage
same,"no defect observed, phenotype as a percentage","Mthfd1l^z/z embryos [3]; 500 mg/kg, Mthfd1l^z/z embryos",0.2727 percentage
same,"orofacial defect and NTD, phenotype as a percentage","Mthfd1l^z/z embryos [3]; 500 mg/kg, Mthfd1l^z/z embryos",0 percentage
same,"orofacial defect, phenotype as a percentage","Mthfd1l^z/z embryos [3]; 500 mg/kg, Mthfd1l^z/z embryos",0.7273 percentage
same,no defect observed (number of embryos),Mthfd1l^z/z embryos [3]; [10],3
same,orofacial defect and NTD (number of embryos),Mthfd1l^z/z embryos [3]; [10],0
same,number with NTD,Mthfd1l^z/z embryos [3]; [11],0
same,number with facial defect,Mthfd1l^z/z embryos [3]; [11],8
same,NTD (number of embryos),Mthfd1l^z/z embryos [3]; [12],0
same,orofacial defect (number of embryos),Mthfd1l^z/z embryos [3]; [12],8
same,"NTD, phenotype as a percentage",Mthfd1l^z/z embryos [3]; [13],0.07692 percentage
same,"no defect observed, phenotype as a percentage",Mthfd1l^z/z embryos [3]; [13],0.6154 percentage
same,"orofacial defect and NTD, phenotype as a percentage",Mthfd1l^z/z embryos [3]; [13],0 percentage
same,"orofacial defect, phenotype as a percentage",Mthfd1l^z/z embryos [3]; [13],0.3077 percentage
same,no defect observed (number of embryos),Mthfd1l^z/z embryos [3]; [14],8
same,orofacial defect and NTD (number of embryos),Mthfd1l^z/z embryos [3]; [14],0
same,number with NTD,Mthfd1l^z/z embryos [3]; [15],1
same,number with facial defect,Mthfd1l^z/z embryos [3]; [15],4
same,NTD (number of embryos),Mthfd1l^z/z embryos [3]; [16],1
same,orofacial defect (number of embryos),Mthfd1l^z/z embryos [3]; [16],4
same,"NTD, phenotype as a percentage",Mthfd1l^z/z embryos [3]; [17],0.3333 percentage
same,"no defect observed, phenotype as a percentage",Mthfd1l^z/z embryos [3]; [17],0.6667 percentage
same,"orofacial defect and NTD, phenotype as a percentage",Mthfd1l^z/z embryos [3]; [17],0 percentage
same,"orofacial defect, phenotype as a percentage",Mthfd1l^z/z embryos [3]; [17],0 percentage
same,no defect observed (number of embryos),Mthfd1l^z/z embryos [3]; [18],10
same,orofacial defect and NTD (number of embryos),Mthfd1l^z/z embryos [3]; [18],0
same,number with NTD,Mthfd1l^z/z embryos [3]; [19],5
same,number with facial defect,Mthfd1l^z/z embryos [3]; [19],0
same,NTD (number of embryos),Mthfd1l^z/z embryos [3]; [20],5
same,orofacial defect (number of embryos),Mthfd1l^z/z embryos [3]; [20],0
same,"NTD, phenotype as a percentage",Mthfd1l^z/z embryos [3]; [21],0.1 percentage
same,"no defect observed, phenotype as a percentage",Mthfd1l^z/z embryos [3]; [21],0.6 percentage
same,"orofacial defect and NTD, phenotype as a percentage",Mthfd1l^z/z embryos [3]; [21],0 percentage
same,"orofacial defect, phenotype as a percentage",Mthfd1l^z/z embryos [3]; [21],0.3 percentage
same,no defect observed (number of embryos),Mthfd1l^z/z embryos [3]; [22],6
same,orofacial defect and NTD (number of embryos),Mthfd1l^z/z embryos [3]; [22],0
same,number with NTD,Mthfd1l^z/z embryos [3]; [23],1
same,number with facial defect,Mthfd1l^z/z embryos [3]; [23],3
same,NTD (number of embryos),Mthfd1l^z/z embryos [3]; [24],1
same,orofacial defect (number of embryos),Mthfd1l^z/z embryos [3]; [24],3
same,growth of Mthfd1l^z/z embryos with increasing maternal intake,"Mthfd1l^z/z embryos [3]; 250-2500 mg/kg/day, embryos dissected at E15.5",dose-response effect
same,Crown-rump length,"Mthfd1l^z/z embryos [3]; Mthfd1l^+/+ embryos, 250 mg/kg calcium formate to dams",1.39 + 0.1 cm
same,Crown-rump length,"Mthfd1l^z/z embryos [3]; Mthfd1l^+/+ embryos, 500 mg/kg calcium formate to dams",1.32 + 0.17 cm
same,Crown-rump length,"Mthfd1l^z/z embryos [3]; Mthfd1l^+/+ embryos, 1500 mg/kg calcium formate to dams",1.46 + 0.2 cm
same,Crown-rump length,"Mthfd1l^z/z embryos [3]; Mthfd1l^+/+ embryos, 2500 mg/kg calcium formate to dams",1.43 + 0.07 cm
same,Crown-rump length,"Mthfd1l^z/z embryos [3]; Mthfd1l^+/+ embryos, 3500 mg/kg calcium formate to dams",1.34 + 0.2 cm
same,Crown-rump length,"Mthfd1l^z/z embryos [3]; Mthfd1l^z/+ embryos, 250 mg/kg calcium formate to dams",1.38 + 0.1 cm
same,Crown-rump length,"Mthfd1l^z/z embryos [3]; Mthfd1l^z/+ embryos, 500 mg/kg calcium formate to dams",1.36 + 0.21 cm
same,Crown-rump length,"Mthfd1l^z/z embryos [3]; Mthfd1l^z/+ embryos, 1500 mg/kg calcium formate to dams",1.46 + 0.1 cm
same,Crown-rump length,"Mthfd1l^z/z embryos [3]; Mthfd1l^z/+ embryos, 2500 mg/kg calcium formate to dams",1.39 + 0.09 cm
same,Crown-rump length,"Mthfd1l^z/z embryos [3]; Mthfd1l^z/+ embryos, 3500 mg/kg calcium formate to dams",1.33 + 0.1 cm
same,Crown-rump length,"Mthfd1l^z/z embryos [3]; Mthfd1l^z/z embryos, 250 mg/kg calcium formate to dams",1.05 ± 0.1 cm
same,Crown-rump length,"Mthfd1l^z/z embryos [3]; Mthfd1l^z/z embryos, 500 mg/kg calcium formate to dams",1.03 ± 0.06 cm
same,Crown-rump length,"Mthfd1l^z/z embryos [3]; Mthfd1l^z/z embryos, 1500 mg/kg calcium formate to dams",1.17 ± 0.13 cm
same,Crown-rump length,"Mthfd1l^z/z embryos [3]; Mthfd1l^z/z embryos, 2500 mg/kg calcium formate to dams",1.20 ± 0.04 cm
same,Crown-rump length,"Mthfd1l^z/z embryos [3]; Mthfd1l^z/z embryos, 3500 mg/kg calcium formate to dams",1.1 ± 0.2 cm
same,NTD and orofacial defect phenotypes,"Mthfd1l^z/z embryos [3]; Table 3 and FIG. 6, mouse model",improves NTD and orofacial defect phenotypes in a dose-dependent manner
CSCC[C@H](N)C(=O)O [methionine],neurulation in Amt null embryos,Amt null embryos,significantly improves neurulation
Nc1nc(=O)c2c([nH]1)NCC(CNc1ccc(C(=O)N[C@@H](CCC(=O)O)C(=O)O)cc1)N2C=O (mixture of isomers) [5-formyl-THF],rescue of Folr1 knockout embryonic folate deficiency,Folr1^−/− embryos,can be rescued
